This note sets out measurements from patent US7968556B2, “Heteroaryl compounds, compositions thereof, and methods of treatment therewith” (Signal Pharmaceuticals, LLC, priority 2006, dated 2011).

Usually IC50 stands for the concentration needed to halve the response being measured. A lower IC50 goes with higher potency. The term melting point denotes the temperature of the solid-liquid transition.

Each structure is given as a SMILES string.

For one data set, the target named is mTOR (Homo sapiens, UniProt P42345). The experiment in a line: mTOR HTR-FRET Assay. Format: biochemical. The gist of the method:
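TOR enzyme fraction preincubated 30 min at room temperature with compound, then reaction started with GST-p70S6 kinase fragment substrate (97 nM working stock) plus ATP/Mn2+ and run 2 h at room temperature in Tris pH 7.4 buffer. Stopped with EDTA; phospho-substrate detected by HTRF antibody reagent after 5 h to overnight.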

In the case of `COc1ccccc1-n1c(=O)[nH]c2c(C(N)=O)nc(-c3ccc(O)cc3)nc21` [Compound 8, 2-(4-hydroxyphenyl)-9-(2-methoxyphenyl)-8-oxo-8,9-dihydro-7H-purine-6-carboxamide], the melting point is 362 to 363 °C. Also, the IC50 against mTOR is 5.1 to 10 µM.
For `COc1ccccc1-n1c(=O)[nH]c2c(C(N)=O)nc(-c3ccnc(O)c3)nc21` [Compound 13, 2-(2-hydroxypyridin-4-yl)-9-(2-methoxyphenyl)-8-oxo-8,9-dihydro-7H-purine-6-carboxamide], in that order: 360 to 362 °C and more than 30 µM.
As to `NC(=O)c1nc(-c2cccnc2)nc2c1[nH]c(=O)n2[C@H]1CC[C@H](O)CC1` [Compound 50, 9-(trans-4-Hydroxycyclohexyl)-8-oxo-2-(pyridin-3-yl)-8,9-dihydro-7H-purine-6-carboxamide], the melting point lay within 343 to 345 °C. Moreover, on mTOR, the IC50 was 0.1 to 5 µM.
